MIC and inhibition data for six compounds are collected here from ChEMBL document CHEMBL2021839, “Pyridine alkaloids from Senna multijuga as acetylcholinesterase inhibitors” (J Nat Prod, 2012).

Test [1] concerns the target Acetylcholinesterase (Electrophorus electricus) (UniProt O42275). The experiment in a line: Inhibition of electric eel AChE assessed as minimum concentration required to inhibit enzyme activity after 20 mins by TLC bioautographic assay.
For test [2] the target is unchanged. The experiment in a line: Inhibition of electric eel AChE using acetylthiocholine as substrate at 350 uM by Ellman's method. (DTNB colorimetry detects thiols as they appear.)

A word on the inhibition: it is the share of the control response that was lost under treatment. The low end stands for a response near the control, the high end for a response far below the control.

Sequence of Acetylcholinesterase (Electrophorus electricus) (O42275 24-633 limits assumed): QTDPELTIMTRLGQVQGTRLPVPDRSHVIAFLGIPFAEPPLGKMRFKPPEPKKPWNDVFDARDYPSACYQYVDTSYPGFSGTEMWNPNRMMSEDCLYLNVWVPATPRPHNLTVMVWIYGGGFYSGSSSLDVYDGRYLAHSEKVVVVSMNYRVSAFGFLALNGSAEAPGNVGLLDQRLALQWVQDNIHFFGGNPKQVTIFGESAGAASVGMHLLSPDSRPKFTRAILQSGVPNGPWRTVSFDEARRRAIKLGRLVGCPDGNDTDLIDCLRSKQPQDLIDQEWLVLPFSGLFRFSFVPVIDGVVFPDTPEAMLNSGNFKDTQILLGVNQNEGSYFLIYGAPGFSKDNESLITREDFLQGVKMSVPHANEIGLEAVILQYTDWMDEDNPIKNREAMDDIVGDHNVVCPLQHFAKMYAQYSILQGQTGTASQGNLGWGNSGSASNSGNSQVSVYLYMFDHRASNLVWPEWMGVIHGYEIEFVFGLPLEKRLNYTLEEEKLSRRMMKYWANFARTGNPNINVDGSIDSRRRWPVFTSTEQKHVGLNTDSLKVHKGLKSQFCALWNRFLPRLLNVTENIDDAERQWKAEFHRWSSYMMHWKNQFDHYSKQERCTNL

As for `CNC(=O)Oc1ccc2c(c1)[C@]1(C)CCN(C)[C@@H]1N2C`, in test [1], the MIC was determined as 0.1 µg. In addition, the inhibition in test [2] was 94%.

For `COC(=O)CCCc1ccc(O)c(C)n1`, the MIC in test [1] was 3 µg. In test [2], this compound gave an inhibition of 40%.

Consider `CCCCC(O)CCCCCCCc1ccc(O)c(C)n1` (racemic), for which, in test [1], the MIC was 1.5 µg. In addition, the inhibition in test [2] came out at 19%.

For the compound `CCCCCC(O)CCCCCCc1ccc(O)c(C)n1` (racemic), the MIC in test [1] is 0.8 µg. Further, in test [2], the inhibition amounted to 52%.

As to `Cc1nc(CCCCCCC(O)CCCCCO)ccc1O` (racemic), the MIC in test [1] stood at 1.5 µg. The compound also had an inhibition in test [2] of 51%.

With `Cc1nc(CCCCCCCC(O)CCCCO)ccc1O` (racemic), in test [1], the MIC is 6 µg. The same compound gave an inhibition in test [2] of 28%.
